# Results reported in ChEMBL document CHEMBL5241130, “Integrating a phenotypic screening with a structural simplification strategy to identify 4-phenoxy-quinoline derivatives to potently disrupt the mitotic localization of Aurora kinase B” (Bioorg Med Chem, 2023).
# Activity calls are given as the source filed them. No cut-off for these calls is given here.
# Target: T1, Aurora kinase A (Homo sapiens) (UniProt O14965)
# T1 sequence (whole entry): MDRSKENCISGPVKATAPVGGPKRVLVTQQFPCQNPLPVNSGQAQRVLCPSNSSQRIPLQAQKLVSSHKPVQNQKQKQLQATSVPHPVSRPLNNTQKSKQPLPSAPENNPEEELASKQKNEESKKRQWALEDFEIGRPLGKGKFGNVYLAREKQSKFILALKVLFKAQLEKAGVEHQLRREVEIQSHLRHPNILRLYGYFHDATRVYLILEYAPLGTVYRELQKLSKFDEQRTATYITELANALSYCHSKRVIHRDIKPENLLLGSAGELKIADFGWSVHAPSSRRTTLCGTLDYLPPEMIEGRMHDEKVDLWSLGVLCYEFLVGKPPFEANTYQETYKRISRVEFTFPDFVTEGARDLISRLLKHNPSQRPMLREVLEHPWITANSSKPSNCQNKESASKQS
# Assay: Inhibition of AURKA in human RPE-MYC H2B-GFP cells assessed as inhibition of autophosphorylation of AURKA at Thr288 residue at 8XMEC measured after 6 hrs by immunofluorescence staining analysis
# Type: cell-based
# Conditions: not given
row,inhibition [%],SMILES
1,< 40,COc1cc(Oc2ccnc3cc(OC)c(OC)cc23)cc(-n2cccn2)c1
2,< 40,COc1cc(Oc2ccnc3ccc(OC)cc23)cc(-n2cccn2)c1
3,< 40,COc1cc(NC(C)=O)cc(Oc2ccnc3ccc(F)cc23)c1

# Target: Aurora kinase B (Homo sapiens) (UniProt Q96GD4)
# Assay: Disruption of mitotic localization of AURKB in human RPE-MYC cells expressing BCL2 assessed as disruption of PLK1 localization at spindle mid-zone at 40 nM measured after 6 hrs by immunofluorescence staining analysis
# Type: cell-based
# Conditions: not given
# Chain of Aurora kinase B (Homo sapiens) (Q96GD4 whole entry): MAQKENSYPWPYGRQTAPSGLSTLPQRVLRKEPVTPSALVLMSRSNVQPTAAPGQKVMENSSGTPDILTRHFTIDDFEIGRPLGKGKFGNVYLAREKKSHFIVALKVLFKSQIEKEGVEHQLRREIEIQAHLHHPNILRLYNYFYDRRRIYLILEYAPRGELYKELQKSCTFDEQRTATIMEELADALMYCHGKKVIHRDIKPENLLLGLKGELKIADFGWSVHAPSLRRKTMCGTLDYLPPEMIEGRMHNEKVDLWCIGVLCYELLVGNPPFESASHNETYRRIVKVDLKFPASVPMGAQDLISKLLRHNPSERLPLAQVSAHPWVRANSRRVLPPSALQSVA
row,Activity,SMILES
1,Active,COc1cc(Oc2ccnc3cc(OC)c(OC)cc23)cc(-n2cccn2)c1
2,Active,COc1cc(Oc2ccnc3ccc(OC)cc23)cc(-n2cccn2)c1
3,Active,COc1cc(NC(C)=O)cc(Oc2ccnc3ccc(F)cc23)c1

# Target: Aurora kinase B (Homo sapiens) (UniProt Q96GD4)
# Assay: Inhibition of AURKB in human RPE-MYC H2B-GFP cells assessed as inhibition of histone H3 phosphorylation at Ser10 residue at 8XMEC measured after 6 hrs by immunofluorescence staining analysis
# Type: cell-based
# Conditions: not given
row,inhibition [%],SMILES
1,< 40,COc1cc(Oc2ccnc3cc(OC)c(OC)cc23)cc(-n2cccn2)c1
2,< 40,COc1cc(Oc2ccnc3ccc(OC)cc23)cc(-n2cccn2)c1
3,< 40,COc1cc(NC(C)=O)cc(Oc2ccnc3ccc(F)cc23)c1

# Target: Aurora kinase B (Homo sapiens) (UniProt Q96GD4)
# Assay: Disruption of mitotic localization of AURKB at the spindle mid-zone and equatorial cortex in human RPE-MYC cells expressing BCL2 at 40 nM measured after 6 hrs by immunofluorescence staining analysis
# Type: cell-based
# Conditions: not given
row,Activity,SMILES
1,Active,COc1cc(Oc2ccnc3cc(OC)c(OC)cc23)cc(-n2cccn2)c1
2,Active,COc1cc(Oc2ccnc3ccc(OC)cc23)cc(-n2cccn2)c1
3,Active,COc1cc(NC(C)=O)cc(Oc2ccnc3ccc(F)cc23)c1

# Test system: NCI-H23
# Assay: Cytotoxicity against human NCI-H23 cells assessed as cell growth inhibition incubated for 3 days by MTT assay
# Type: functional, cell-based
# Conditions: time 3.0 day
row,SMILES,Activity
1,COc1cc(Oc2ccnc3cc(OC)c(OC)cc23)cc(-n2cccn2)c1,Active
2,COc1cc(Oc2ccnc3ccc(OC)cc23)cc(-n2cccn2)c1,Active
3,COc1cc(NC(C)=O)cc(Oc2ccnc3ccc(F)cc23)c1,Active

# Test system: A549
# Assay: Cytotoxicity against human A549 cells assessed as cell growth inhibition incubated for 3 days by MTT assay
# Type: functional, cell-based
# Conditions: time 3.0 day
row,SMILES,Activity
1,COc1cc(Oc2ccnc3cc(OC)c(OC)cc23)cc(-n2cccn2)c1,Active
2,COc1cc(Oc2ccnc3ccc(OC)cc23)cc(-n2cccn2)c1,Active
3,COc1cc(NC(C)=O)cc(Oc2ccnc3ccc(F)cc23)c1,Active

# Test system: MDA-MB-231
# Assay: Cytotoxicity against human MDA-MB-231 cells assessed as cell growth inhibition incubated for 3 days by MTT assay
# Type: functional, cell-based
# Conditions: time 3.0 day
row,SMILES,Activity
1,COc1cc(Oc2ccnc3cc(OC)c(OC)cc23)cc(-n2cccn2)c1,Active
2,COc1cc(Oc2ccnc3ccc(OC)cc23)cc(-n2cccn2)c1,Active
3,COc1cc(NC(C)=O)cc(Oc2ccnc3ccc(F)cc23)c1,Active

# Test system: SW480
# Assay: Cytotoxicity against human SW480 cells assessed as cell growth inhibition incubated for 3 days by MTT assay
# Type: functional, cell-based
# Conditions: time 3.0 day
row,SMILES,Activity
1,COc1cc(Oc2ccnc3cc(OC)c(OC)cc23)cc(-n2cccn2)c1,Active
2,COc1cc(Oc2ccnc3ccc(OC)cc23)cc(-n2cccn2)c1,Active
3,COc1cc(NC(C)=O)cc(Oc2ccnc3ccc(F)cc23)c1,Active

# Target: Aurora kinase B (Homo sapiens) (UniProt Q96GD4)
# Assay: Disruption of mitotic localization of AURKB in human RPE-MYC H2B-GFP cells assessed as induction of mitotic arrest measured after 24 hrs by fluorescence high content cell imaging analysis
# Type: cell-based
# Conditions: not given
row,MEC [µM],SMILES
1,0.012,COc1cc(Oc2ccnc3cc(OC)c(OC)cc23)cc(-n2cccn2)c1
2,0.012,COc1cc(Oc2ccnc3ccc(OC)cc23)cc(-n2cccn2)c1
3,0.01,COc1cc(NC(C)=O)cc(Oc2ccnc3ccc(F)cc23)c1

# Target: Aurora kinase B (Homo sapiens) (UniProt Q96GD4)
# Assay: Disruption of mitotic localization of AURKB in human RPE-MYC H2B-GFP cells assessed as induction of polyploidy by fluorescence high content cell imaging analysis relative to control
# Type: cell-based
# Conditions: not given
row,Activity [%],SMILES
1,100,COc1cc(Oc2ccnc3cc(OC)c(OC)cc23)cc(-n2cccn2)c1
2,100,COc1cc(Oc2ccnc3ccc(OC)cc23)cc(-n2cccn2)c1
3,100,COc1cc(NC(C)=O)cc(Oc2ccnc3ccc(F)cc23)c1

# Test system: HeLa
# Assay: Cytotoxicity against human HeLa cells assessed as cell growth inhibition incubated for 3 days by MTT assay
# Type: functional, cell-based
# Conditions: time 3.0 day
row,SMILES,Activity
1,COc1cc(Oc2ccnc3cc(OC)c(OC)cc23)cc(-n2cccn2)c1,Active
2,COc1cc(Oc2ccnc3ccc(OC)cc23)cc(-n2cccn2)c1,Active
3,COc1cc(NC(C)=O)cc(Oc2ccnc3ccc(F)cc23)c1,Active

# Target: Aurora kinase B (Homo sapiens) (UniProt Q96GD4)
# Assay: Disruption of mitotic localization of AURKB in human RPE-MYC cells expressing BCL2 assessed as disruption of MKLP1 localization at spindle mid-zone at 40 nM measured after 6 hrs by immunofluorescence staining analysis
# Type: cell-based
# Conditions: not given
row,Activity,SMILES
1,Active,COc1cc(Oc2ccnc3cc(OC)c(OC)cc23)cc(-n2cccn2)c1
2,Active,COc1cc(Oc2ccnc3ccc(OC)cc23)cc(-n2cccn2)c1
3,Active,COc1cc(NC(C)=O)cc(Oc2ccnc3ccc(F)cc23)c1

# Target: Aurora kinase B (Homo sapiens) (UniProt Q96GD4)
# Assay: Disruption of mitotic localization of AURKB in human RPE-MYC H2B-GFP cells assessed as induction of polyploidy by fluorescence high content cell imaging analysis
# Type: cell-based
# Conditions: not given
row,MEC [µM],SMILES
1,0.012,COc1cc(Oc2ccnc3cc(OC)c(OC)cc23)cc(-n2cccn2)c1
2,0.012,COc1cc(Oc2ccnc3ccc(OC)cc23)cc(-n2cccn2)c1
3,0.01,COc1cc(NC(C)=O)cc(Oc2ccnc3ccc(F)cc23)c1

# Target: Aurora kinase B (Homo sapiens) (UniProt Q96GD4)
# Assay: Disruption of mitotic localization of AURKB in human RPE-MYC H2B-GFP cells assessed as induction of mitotic arrest by fluorescence high content cell imaging analysis
# Type: cell-based
# Conditions: not given
row,Activity,SMILES
1,inactive,COc1cc(Oc2ccnc3cc(OC)c(OC)cc23)cc(-n2cccn2)c1
2,inactive,COc1cc(Oc2ccnc3ccc(OC)cc23)cc(-n2cccn2)c1
3,inactive,COc1cc(NC(C)=O)cc(Oc2ccnc3ccc(F)cc23)c1

# Test system: HCT-116
# Assay: Cytotoxicity against human HCT-116 cells assessed as cell growth inhibition incubated for 3 days by MTT assay
# Type: functional, cell-based
# Conditions: time 3.0 day
row,SMILES,Activity
1,COc1cc(Oc2ccnc3cc(OC)c(OC)cc23)cc(-n2cccn2)c1,Active
2,COc1cc(Oc2ccnc3ccc(OC)cc23)cc(-n2cccn2)c1,Active
3,COc1cc(NC(C)=O)cc(Oc2ccnc3ccc(F)cc23)c1,Active

# Test system: NCI-N87
# Assay: Cytotoxicity against human NCI-N87 cells assessed as cell growth inhibition incubated for 3 days by MTT assay
# Type: functional, cell-based
# Conditions: time 3.0 day
row,SMILES,Activity
1,COc1cc(Oc2ccnc3cc(OC)c(OC)cc23)cc(-n2cccn2)c1,Active
2,COc1cc(Oc2ccnc3ccc(OC)cc23)cc(-n2cccn2)c1,Active
3,COc1cc(NC(C)=O)cc(Oc2ccnc3ccc(F)cc23)c1,Active
